Measurements from the NIST ThermoML archive (doi:10.1021/je100507n).
Numbers after ± are expanded uncertainties.

Tests used:
[1] = Molar enthalpy of transition or fusion
[2] = for mass density: 101.33 kPa, Buoyancy - hydrostatic balance with magnetic suspension - one sinker; for mass density / surface tension liquid-gas: Liquid; for surface tension liquid-gas: Ring tensiometer

Compound: CC[n+]1ccccc1.O=S(=O)([N-]S(=O)(=O)C(F)(F)F)C(F)(F)F [1-ethylpyridinium bis[(trifluoromethyl)sulfonyl]imide]
- Molar enthalpy of transition or fusion ([1]; Crystal 1): 4.52 ± 0.55 kcal/mol
- mass density ([2]; 288.15 K): 1545.7 ± 13 kg/m3
- surface tension liquid-gas ([2]; 288.15 K): 37.7 ± 1.1 mN/m
- mass density ([2]; 293.15 K): 1541.4 ± 13 kg/m3
- surface tension liquid-gas ([2]; 293.15 K): 37.6 ± 1.1 mN/m
- mass density ([2]; 298.15 K): 1537.5 ± 13 kg/m3
- surface tension liquid-gas ([2]; 298.15 K): 37.4 ± 1.1 mN/m
- mass density ([2]; 303.15 K): 1533.2 ± 13 kg/m3
- surface tension liquid-gas ([2]; 303.15 K): 37.1 ± 1.1 mN/m
- mass density ([2]; 308.15 K): 1529.1 ± 13 kg/m3
- surface tension liquid-gas ([2]; 308.15 K): 36.9 ± 1.1 mN/m
- mass density ([2]; 313.15 K): 1524.9 ± 13 kg/m3
- surface tension liquid-gas ([2]; 313.15 K): 36.7 ± 1 mN/m
- mass density ([2]; 318.15 K): 1520.5 ± 13 kg/m3
- surface tension liquid-gas ([2]; 318.15 K): 36.6 ± 1 mN/m
- mass density ([2]; 323.15 K): 1516.4 ± 12 kg/m3
- surface tension liquid-gas ([2]; 323.15 K): 36.4 ± 1 mN/m
- mass density ([2]; 328.15 K): 1512.2 ± 12 kg/m3
- surface tension liquid-gas ([2]; 328.15 K): 36.1 ± 1 mN/m
- mass density ([2]; 333.15 K): 1507.8 ± 12 kg/m3
- surface tension liquid-gas ([2]; 333.15 K): 35.9 ± 1 mN/m
- mass density ([2]; 338.15 K): 1503.7 ± 12 kg/m3
- surface tension liquid-gas ([2]; 338.15 K): 35.6 ± 1 mN/m
- Normal melting temperature ([2]; Crystal 1, DTA): 30.50 ± 1 °C
- Triple point temperature ([2]; Crystal 2, DTA): 292.8 ± 0.5 K
- Glass transition temperature ([2]; DTA): -37.91 ± 3 °C

Compound: CCCCC[n+]1ccccc1.O=S(=O)([N-]S(=O)(=O)C(F)(F)F)C(F)(F)F [1-pentylpyridinium bis(trifluoromethylsulfonyl)amide]
- Molar enthalpy of transition or fusion ([1]; Crystal): 5.45 ± 0.645 kcal/mol
- mass density ([2]; 283.15 K): 1433.1 ± 11 kg/m3
- surface tension liquid-gas ([2]; 283.15 K): 33.1 ± 1 mN/m
- mass density ([2]; 288.15 K): 1429.6 ± 11 kg/m3
- surface tension liquid-gas ([2]; 288.15 K): 32.8 ± 0.9 mN/m
- mass density ([2]; 293.15 K): 1425.9 ± 11 kg/m3
- surface tension liquid-gas ([2]; 293.15 K): 32.7 ± 0.9 mN/m
- mass density ([2]; 298.15 K): 1421.4 ± 11 kg/m3
- surface tension liquid-gas ([2]; 298.15 K): 32.5 ± 0.9 mN/m
- mass density ([2]; 303.15 K): 1416.9 ± 11 kg/m3
- surface tension liquid-gas ([2]; 303.15 K): 32.2 ± 0.9 mN/m
- mass density ([2]; 308.15 K): 1412.8 ± 11 kg/m3
- surface tension liquid-gas ([2]; 308.15 K): 32 ± 0.9 mN/m
- mass density ([2]; 313.15 K): 1408.3 ± 11 kg/m3
- surface tension liquid-gas ([2]; 313.15 K): 31.8 ± 0.9 mN/m
- mass density ([2]; 318.15 K): 1403.8 ± 11 kg/m3
- surface tension liquid-gas ([2]; 318.15 K): 31.5 ± 0.9 mN/m
- mass density ([2]; 323.15 K): 1398.9 ± 11 kg/m3
- surface tension liquid-gas ([2]; 323.15 K): 31.3 ± 0.9 mN/m
- mass density ([2]; 328.15 K): 1394.2 ± 11 kg/m3
- surface tension liquid-gas ([2]; 328.15 K): 31.1 ± 0.9 mN/m
- mass density ([2]; 333.15 K): 1389.3 ± 10 kg/m3
- surface tension liquid-gas ([2]; 333.15 K): 30.8 ± 0.9 mN/m
- mass density ([2]; 338.15 K): 1385.1 ± 10 kg/m3
- surface tension liquid-gas ([2]; 338.15 K): 30.5 ± 0.9 mN/m
- Normal melting temperature ([2]; Crystal, DTA): -0.31 ± 1 °C
- Glass transition temperature ([2]; DTA): -76.93 ± 3 °C

Compound: CCCC[n+]1ccccc1.O=S(=O)([N-]S(=O)(=O)C(F)(F)F)C(F)(F)F [1-butylpyridinium bis[(trifluoromethyl)sulfonyl]imide]
- Molar enthalpy of transition or fusion ([1]; Crystal): 6.67 ± 0.765 kcal/mol
- mass density ([2]; 298.15 K): 1454.7 ± 12 kg/m3
- surface tension liquid-gas ([2]; 298.15 K): 33.4 ± 1 mN/m
- mass density ([2]; 303.15 K): 1450.6 ± 12 kg/m3
- surface tension liquid-gas ([2]; 303.15 K): 33.2 ± 1 mN/m
- mass density ([2]; 308.15 K): 1446.2 ± 11 kg/m3
- surface tension liquid-gas ([2]; 308.15 K): 32.9 ± 0.9 mN/m
- mass density ([2]; 313.15 K): 1441.7 ± 11 kg/m3
- surface tension liquid-gas ([2]; 313.15 K): 32.8 ± 0.9 mN/m
- mass density ([2]; 318.15 K): 1437.2 ± 11 kg/m3
- surface tension liquid-gas ([2]; 318.15 K): 32.4 ± 0.9 mN/m
- mass density ([2]; 323.15 K): 1433.2 ± 11 kg/m3
- surface tension liquid-gas ([2]; 323.15 K): 32.1 ± 0.9 mN/m
- mass density ([2]; 328.15 K): 1429.1 ± 11 kg/m3
- surface tension liquid-gas ([2]; 328.15 K): 32 ± 0.9 mN/m
- mass density ([2]; 333.15 K): 1424.5 ± 11 kg/m3
- surface tension liquid-gas ([2]; 333.15 K): 31.8 ± 0.9 mN/m
- mass density ([2]; 338.15 K): 1420.5 ± 11 kg/m3
- Normal melting temperature ([2]; Crystal, DTA): 25.90 ± 1 °C
